From patent US20060069132A1, “Azolecarboxamide herbicides” (priority 2004, published 2006)

Legend:
corn = assay: Test B pre-/postemergence herbicide test; assay type: in vivo, Zea mays; conditions: for Corn plant response rating: postemergence
How it was run: (§1)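 Seeds were planted and treated preemergence with compounds formulated in a non-phytotoxic solvent mixture containing surfactant, while plants at the 1- to 4-leaf stage (2 to 18 cm) received postemergence sprays. Flooded paddy plants were grown to the 2-leaf stage. After 13 to 15 days in a greenhouse, injury was visually rated 0–100 against untreated controls.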

pigweed = assay: Test B pre-/postemergence herbicide test; assay type: in vivo, Amaranthus retroflexus; conditions: for Pigweed plant response rating: postemergence
How it was run: as §1

[1] = test system: small flower umbrella sedge; assay: Test B flooded paddy test; assay type: in vivo, Cyperus difformis; conditions: 1000 g ai/ha, scale 0 to 100 (0 no effect, 100 complete control)
How it was run: (§2)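 Treated at 2-leaf (paddy) or 1–4-leaf, 2–18 cm (postemergence); greenhouse 13–15 d; visual score vs control, 0 none to 100 complete control; dash = not tested.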

lambsquarters = assay: Test B pre-/postemergence herbicide test; assay type: in vivo, Chenopodium album; conditions: for Lambsquarters plant response rating: postemergence
How it was run: as §1

large crabgrass = assay: Test B pre-/postemergence herbicide test; assay type: in vivo, Digitaria sanguinalis; conditions: for Crabgrass, Large plant response rating: postemergence
How it was run: as §1

rice [2] = assay: Test B flooded paddy test; assay type: in vivo, Oryza sativa; conditions: 1000 g ai/ha, scale 0 to 100 (0 no effect, 100 complete control)
How it was run: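 Visual ratings, 0 (no effect) to 100 (complete control), made versus controls after 13–15 d greenhouse. Paddy plants treated at 2-leaf stage; postemergence plants at 1- to 4-leaf stage, 2–18 cm tall.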

barnyardgrass [3] = assay: Test B pre-/postemergence herbicide test; assay type: in vivo, Echinochloa crus-galli; conditions: for Barnyardgrass plant response rating: postemergence, scale 0 (no effect) to 100 (complete control)
How it was run: (§3)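 Herbicidal effect was judged by eye on a 0–100 scale after plants stood 13 to 15 days in the greenhouse following pre- or postemergence treatment with surfactant-containing formulations.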

barnyardgrass [4] = assay: Test B flooded paddy test; assay type: in vivo, Echinochloa crus-galli; conditions: 1000 g ai/ha, scale 0 to 100 (0 no effect, 100 complete control)
How it was run: as §2

rice [5] = assay: Test C flooded paddy test; assay type: in vivo, Oryza sativa
How it was run: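 Plants were grown to the 1- to 4-leaf stage (2–18 cm) and then treated postemergence, or grown to the 2-leaf stage for the flooded paddy test. They were held in a greenhouse for 12 to 14 days and then scored by eye against controls, where 0 is no effect and 100 is complete control.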

giant foxtail = assay: Test B pre-/postemergence herbicide test; assay type: in vivo, Setaria faberi; conditions: for Foxtail, Giant plant response rating: postemergence
How it was run: as §1

cocklebur = assay: Test B pre-/postemergence herbicide test; assay type: in vivo, Xanthium strumarium; conditions: for Cocklebur plant response rating: postemergence, scale 0 (no effect) to 100 (complete control)
How it was run: as §3

wild oat = assay: Test B postemergence herbicide test; assay type: in vivo, Avena fatua; conditions: postemergence
How it was run: (§4)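 Formulated test chemicals went onto postemergence plants measuring 2 to 18 cm, at one to four leaves. For the paddy assay, species had reached two leaves. Scoring took place 13–15 days later by eye, relative to untreated plants, using 0 for no effect up to 100 for full control.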

Surinam grass = assay: Test B pre-/postemergence herbicide test; assay type: in vivo, Urochloa decumbens; conditions: for Surinam Grass plant response rating: postemergence
How it was run: as §1

[6] = test system: smallflower umbrella sedge; assay: Test C flooded paddy test; assay type: in vivo, Cyperus difformis
velvetleaf = assay: Test B pre-/postemergence herbicide test; assay type: in vivo, Abutilon theophrasti; conditions: for Velvetleaf plant response rating: postemergence
How it was run: as §1

morningglory = assay: Test B pre-/postemergence herbicide test; assay type: in vivo, Ipomoea coccinea; conditions: for Morningglory plant response rating: postemergence
How it was run: as §3

rice [7] = assay: Test B pre-/postemergence herbicide test; assay type: in vivo, Oryza sativa; conditions: 0 = no effect, 100 = complete control, preemergence
How it was run: as §1

blackgrass = assay: Test B postemergence herbicide test; assay type: in vivo, Alopecurus myosuroides; conditions: postemergence, visual rating, scale 0 (no effect) to 100 (complete control)
How it was run: as §2

ducksalad [8] = assay: Test B flooded paddy test; assay type: in vivo, Heteranthera limosa; conditions: 1000 g ai/ha, scale 0 to 100 (0 no effect, 100 complete control)
How it was run: as §2

ducksalad [9] = assay: Test C flooded paddy test; assay type: in vivo, Heteranthera limosa
barnyardgrass [10] = assay: Test C flooded paddy test; assay type: in vivo, Echinochloa crus-galli
How it was run: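 Greenhouse test with a 12–14 day hold after application and visual comparison with controls. Emerged plants were 1- to 4-leaf stage (2–18 cm) when sprayed postemergence, and the paddy barnyardgrass was at 2 leaves under flooded conditions. 100 = complete control.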

wheat = assay: Test B postemergence herbicide test; assay type: in vivo, Triticum aestivum; design: key to Wheat plant response rating: 0 = no effect, 100 = complete control; conditions: postemergence
How it was run: as §4

[11] = 125 g ai/ha, 0 = no effect, 100 = complete control, preemergence
[12] = 500 g ai/ha, visual rating, 0 = no effect, 100 = complete control, preemergence
[13] = 125 g ai/ha, visual rating, scale 0 (no effect) to 100 (complete control)
[14] = 500 g ai/ha, scale 0 to 100, 0 is no effect, 100 is complete control
[15] = 125 g ai/ha, scale 0 to 100 (0 no effect, 100 complete control)
[16] = 250 g ai/ha, scale of 0 to 100, 0 is no effect, 100 is complete control
[17] = 500 g ai/ha, visual rating after 12 to 14 days, scale 0 to 100 (0 no effect, 100 complete control)

In the case of `CCNC(=O)c1ccc(OC)c(NC(=O)c2cc(C(C)(C)C)nn2CC)n1` [Compound 266], the “Corn plant response rating (0 to 100 scale)” value (corn; [11]) is reported as 0, the “Plant response rating, Corn” value (corn; [12]) is reported as 90 and the “Corn plant response rating” value (corn; [13]) is reported as 0. The “Corn plant response rating” value (corn; [14]) was 0, the “Pigweed plant response rating (0 to 100 scale)” value (pigweed; [11]) was 100 and the “Plant response rating, Pigweed” value (pigweed; [12]) was 100. The “Pigweed plant response rating” value (pigweed; [13]) was 20, the “Pigweed plant response rating” value (pigweed; [14]) was 100 and the “Sedge, Umbrella plant response rating” value [1] was 80. The “Lambsquarters plant response rating (0 to 100 scale)” value (lambsquarters; [11]) was 100, the “Plant response rating, Lambsquarters” value (lambsquarters; [12]) was 100 and the “Lambsquarters plant response rating” value (lambsquarters; [13]) was 60. The “Lambsquarters plant response rating” value (lambsquarters; [14]) was 100, the “Crabgrass, Large plant response rating (0 to 100 scale)” value (large crabgrass; [11]) was 50 and the “Plant response rating, Crabgrass, Large” value (large crabgrass; [12]) was 100. The “Crabgrass, Large plant response rating” value (large crabgrass; [13]) was 0, the “Crabgrass, Large plant response rating” value (large crabgrass; [14]) was 0 and the “Rice plant response rating” value (rice [2]) was 80. The “Barnyardgrass plant response rating (0 to 100 scale)” value (barnyardgrass [3]; [11]) was 60, the “Plant response rating, Barnyardgrass” value (barnyardgrass [3]; [12]) was 80 and the “Barnyardgrass plant response rating” value (barnyardgrass [3]; 125 g ai/ha, visual rating) was 0. For the same compound, the “Barnyardgrass plant response rating” value (barnyardgrass [3]; 500 g ai/ha, visual rating) was 0, the “Barnyardgrass plant response rating” value (barnyardgrass [4]) was 80 and the “Rice plant response rating” value (rice [5]; 62 g ai/ha, scale 0 to 100) was 0. The “Rice plant response rating” value (rice [5]; [15]) was 10, the “Rice plant response rating” value (rice [5]; [16]) was 65 and the “Plant response rating, Rice” value (rice [5]; [17]) was 80. For the same compound, the “Foxtail, Giant plant response rating (0 to 100 scale)” value (giant foxtail; [11]) was 80, the “Plant response rating, Foxtail, Giant” value (giant foxtail; [12]) was 100 and the “Foxtail, Giant plant response rating” value (giant foxtail; [13]) was 0. For the same compound, the “Foxtail, Giant plant response rating” value (giant foxtail; [14]) was 20, the “Cocklebur plant response rating (0 to 100 scale)” value (cocklebur; [11]) was 0 and the “Plant response rating, Cocklebur” value (cocklebur; [12]) was 10. The “Cocklebur plant response rating” value (cocklebur; 125 g ai/ha, visual rating) was 0, the “Cocklebur plant response rating” value (cocklebur; 500 g ai/ha, visual rating) was 0 and the “Oat, Wild plant response rating” value (wild oat; [13]) was 10. For the same compound, the “Oat, Wild plant response rating” value (wild oat; [14]) was 20, the “Surinam Grass plant response rating (0 to 100 scale)” value (Surinam grass; [11]) was 60 and the “Plant response rating, Surinam Grass” value (Surinam grass; [12]) was 90. The “Surinam Grass plant response rating” value (Surinam grass; [13]) was 10, the “Surinam Grass plant response rating” value (Surinam grass; [14]) was 20 and the “Sedge, Umbrella plant response rating” value ([6]; 62 g ai/ha, scale 0 to 100) was 0. The “Sedge, Umbrella plant response rating” value [6, 15] was 20, the “Sedge, Umbrella plant response rating” value [6, 16] was 55 and the “Plant response rating, Sedge, Umbrella” value [6, 17] was 80. The “Velvetleaf plant response rating (0 to 100 scale)” value (velvetleaf; [11]) was 20, the “Plant response rating, Velvetleaf” value (velvetleaf; [12]) was 100 and the “Velvetleaf plant response rating” value (velvetleaf; [13]) was 0. The “Velvetleaf plant response rating” value (velvetleaf; [14]) was 0, the “Morningglory plant response rating (0 to 100 scale)” value (morningglory; [11]) was 0 and the “Plant response rating, Morningglory” value (morningglory; [12]) was 10. For the same compound, the “Morningglory plant response rating” value (morningglory; [13]) was 30, the “Morningglory plant response rating” value (morningglory; [14]) was 50 and the “Rice plant response rating (0 to 100 scale)” value (rice [7]; 125 g ai/ha) was 70. For the same compound, the “Plant response rating, Rice” value (rice [7]; 500 g ai/ha, visual rating) was 80, the “Blackgrass plant response rating” value (blackgrass; 125 g ai/ha) was 20 and the “Blackgrass plant response rating” value (blackgrass; 500 g ai/ha) was 20. The “Ducksalad plant response rating” value (ducksalad [8]) was 90, the “Ducksalad plant response rating” value (ducksalad [9]; 62 g ai/ha, scale 0 to 100) was 0 and the “Ducksalad plant response rating” value (ducksalad [9]; [15]) was 15. For the same compound, the “Ducksalad plant response rating” value (ducksalad [9]; [16]) was 75, the “Plant response rating, Ducksalad” value (ducksalad [9]; [17]) was 95 and the “Barnyardgrass plant response rating” value (barnyardgrass [10]; 62 g ai/ha, scale 0 to 100 (0 no effect, 100 complete control)) was 0. For the same compound, the “Barnyardgrass plant response rating” value (barnyardgrass [10]; [15]) was 25, the “Barnyardgrass plant response rating” value (barnyardgrass [10]; [16]) was 50 and the “Plant response rating, Barnyardgrass” value (barnyardgrass [10]; [17]) was 70. For the same compound, the “Wheat plant response rating” value (wheat; [13]) was 20 and the “Wheat plant response rating” value (wheat; [14]) was 30.
